Common to all, as to assay: DTP human tumour cell line panel, 48 h
Assay [1] concerns A498 renal.
For assay [2], the system named is CAKI-1 renal.
Assay [3] deals with CCRF-CEM leukemia.
The test system of assay [4] is COLO 205 colon.
Assay [5] deals with DU-145 prostate.
Assay [6] deals with HOP-62 NSCLC.
For assay [7], the system named is OVCAR-8 ovarian.
The test system of assay [8] is RPMI-8226 leukemia.
For assay [9], the system named is RXF 393 renal.
Assay [10] concerns SR leukemia.

SMILES strings stand for the structures.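 How tested: cells in 96-well plates exposed to compound for 48 hours at five concentrations. GI50 marks 50% less growth. At the TGI there is no net growth.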

Among the data in PubChem BioAssay (NCI) are GI50 and TGI values, retold here.

Broadly, the GI50 is the concentration giving 50% growth inhibition. In general, TGI refers to the concentration giving total growth inhibition. A low value points to more potent growth arrest. Consider `COc1cc(-c2cc(/C=C/C(=O)c3ccc4c(c3)OCO4)[nH]n2)cc(OC)c1OC`, for which the GI50 was 2.76 µM in [1]; 5.51 µM in assay [2]; 1.57 µM in assay [3]; 1.87 µM in assay [4]; 2.72 µM in assay [5]; 2.18 µM in assay [6]. In addition, the GI50 in assay [7] is 2.85 µM; in assay [8], 0.51 µM; in [9] it was 1.48 µM; in assay [10], 0.552 µM. The TGI in assay [1] is 15.4 µM; in [2] it was over 100 µM; in assay [3], 5.96 µM; in assay [4] it was 3.85 µM; in [5] it was 9.56 µM; in assay [6], 5.17 µM. Also, the TGI in [7] is 11.1 µM; in [8], 2.94 µM; in assay [9], 2.87 µM; in assay [10], over 100 µM.
As for `Fc1ccc(CNc2c3ccccc3nc3ccccc23)cc1`, the GI50 is 1.36 µM in assay [1]; 1.46 µM in [2]; 3.12 µM in assay [3]; 1.66 µM in [4]; 3.18 µM in assay [5]; 3.58 µM in assay [6]. Further, the GI50 is 2.64 µM in [7], 2.03 µM in assay [8], 2.07 µM in assay [9] and 2.2 µM in [10]. For the same compound, the TGI in [1] is 3.24 µM; in assay [2] it was 3.8 µM; in assay [3], over 100 µM; in assay [4], 3.7 µM; in assay [5] it was 11.3 µM; in [6], 16.7 µM. The TGI in [7] amounted to 12.5 µM; in assay [8], 5.79 µM; in assay [9], 5.4 µM; in [10], 7.75 µM.
As to `O=C(O)c1cc(N/C=C2\C(=O)c3ccccc3OC2O)ccc1O` (stereo not given), the GI50 is 35.8 µg/mL in [1]; 13 µg/mL in assay [2]; 9.75 µg/mL in assay [3]; 30.6 µg/mL in assay [4]; 18.9 µg/mL in [5]; 29.8 µg/mL in [6]. For the same compound, the GI50 in assay [7] was 27.4 µg/mL; in assay [8], 2.24 µg/mL; in assay [9], 18.5 µg/mL; in assay [10] it was 4.77 µg/mL. Moreover, the TGI in assay [1] came to 77.5 µg/mL; in assay [2], 42 µg/mL; in assay [3], 44.2 µg/mL; in assay [4] it was 77.9 µg/mL; in assay [5], 59 µg/mL; in assay [6], 75.3 µg/mL. The TGI in [7] was over 150 µg/mL; in [8], 7.82 µg/mL; in [9] it was 40.1 µg/mL; in assay [10] it was 36.9 µg/mL.
In the case of `O=S(=O)(O)c1ccc(Cl)cc1.[Cd]`, the GI50 in assay [1] is over 100 µM; in assay [2] it was 36 µM; in [3] it was 24.9 µM; in [4], over 100 µM; in [5], 67.3 µM; in assay [6], over 100 µM. The GI50 in assay [7] was over 100 µM; in assay [8], 32.1 µM; in [9] it was 27.3 µM; in [10], 22.8 µM. The TGI was over 100 µM in assay [1]; over 100 µM in assay [2]; 85.4 µM in [3]; over 100 µM in assay [4]; over 100 µM in assay [5]; over 100 µM in assay [6]. The TGI was over 100 µM in assay [7], over 100 µM in assay [8], 79.3 µM in assay [9] and over 100 µM in assay [10].
With `COC(=O)NNc1c([N+](=O)[O-])cnn(-c2ccccc2)c1=O`, the concentration for total growth inhibition (TGI) in assay [1] stood at 78.2 µM; in assay [2], 8.24 µM; in assay [3], 1.55 µM; in assay [4], 6.02 µM; in assay [5], 16.9 µM; in [6], 14.9 µM. Further, the concentration for total growth inhibition (TGI) in assay [7] worked out at 3.75 µM; in [8], 19.2 µM; in [9], 10.1 µM; in assay [10], 0.981 µM.
Turning to `C=C1C(=O)O[C@H]2[C@H]1CC/C(C=Nc1ccc(C(F)(F)F)cc1N)=C\CC[C@@]1(C)O[C@@H]21`, the GI50 is 17 µM in assay [1]; 3.73 µM in assay [2]; 3.16 µM in [3]; 4.21 µM in assay [4]; 3.21 µM in assay [5]; 12.8 µM in [6]. Moreover, the GI50 in assay [7] is 4.29 µM; in assay [8], 3.24 µM; in assay [9], 2.87 µM; in [10] it was 2.66 µM. The TGI in assay [1] was found to be 30.8 µM; in assay [2] it was 16.7 µM; in assay [3], 11.2 µM; in assay [4] it was 16.3 µM; in assay [5], 13.1 µM; in assay [6], 26.5 µM. Also, the TGI in [7] worked out at 15.9 µM; in assay [8], 10.1 µM; in assay [9] it was 9.22 µM; in [10], 10.7 µM.
With `COc1ccc2c(CC(=O)O)cc(=O)oc2c1`, the total growth inhibition concentration (TGI) in [1], in [2], in [3], in assay [4], in [5] and in assay [6] was over 100 µM each time. In addition, the concentration for total growth inhibition (TGI) in [7], in assay [8], in assay [9] and in assay [10] was over 100 µM throughout.
Consider `CN(CCCCCl)P(=O)(OCc1ccc([N+](=O)[O-])o1)C(F)(F)c1ccc(CC(=O)N[C@@H](CC(=O)O)C(=O)N[C@@H](Cc2ccc(C(F)(F)P(=O)(OCc3ccc([N+](=O)[O-])o3)N(C)CCCCCl)cc2)C(N)=O)cc1` (stereo not given in full), for which the GI50 in [1] is 33 µM; in assay [2] it was over 100 µM; in [3], 30.2 µM; in assay [4], 41 µM; in assay [5], 85.8 µM; in assay [6], over 100 µM. Moreover, the GI50 was over 100 µM in [7], 25.5 µM in [8], over 100 µM in [9] and 22.9 µM in assay [10]. Further, the TGI was 87.5 µM in assay [1]; over 100 µM in assay [2]; over 100 µM in assay [3]; over 100 µM in assay [4]; over 100 µM in [5]; over 100 µM in assay [6]. For the same compound, the TGI in [7] was over 100 µM; in assay [8], 71.9 µM; in assay [9] it was over 100 µM; in assay [10], 49.9 µM.
